Assay results published in patent publication US20240158392A1 (Janssen Biotech, Inc., priority 2021, published 2024).

biological target: SIK2 (Homo sapiens, UniProt Q9H0K1); assay: SIK2 Enzymatic Assay High Version 2 (High ATP); assay type: biochemical; conditions: enzyme 6 nM, 6 mM ATP and 400 μM HDAC5tide (each 2× final concentration); 30 minutes pre-incubation, 2 hours; ADP-Glo Max luminescence; read-out: SIK2 high ATP IC50 (μM) (Test Example 2)
How it was run: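 At room temperature, enzyme (6 nM, 2× final) was preincubated with compound for 30 min, then 6 mM ATP and 400 μM HDAC5tide (both 2× final) were added for 2 h. ADP formed was measured by ADP-Glo Max (2 h reagent, 1 h detection) using luminescence.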

Sequence of SIK2 (Q9H0K1 whole entry, species assumed): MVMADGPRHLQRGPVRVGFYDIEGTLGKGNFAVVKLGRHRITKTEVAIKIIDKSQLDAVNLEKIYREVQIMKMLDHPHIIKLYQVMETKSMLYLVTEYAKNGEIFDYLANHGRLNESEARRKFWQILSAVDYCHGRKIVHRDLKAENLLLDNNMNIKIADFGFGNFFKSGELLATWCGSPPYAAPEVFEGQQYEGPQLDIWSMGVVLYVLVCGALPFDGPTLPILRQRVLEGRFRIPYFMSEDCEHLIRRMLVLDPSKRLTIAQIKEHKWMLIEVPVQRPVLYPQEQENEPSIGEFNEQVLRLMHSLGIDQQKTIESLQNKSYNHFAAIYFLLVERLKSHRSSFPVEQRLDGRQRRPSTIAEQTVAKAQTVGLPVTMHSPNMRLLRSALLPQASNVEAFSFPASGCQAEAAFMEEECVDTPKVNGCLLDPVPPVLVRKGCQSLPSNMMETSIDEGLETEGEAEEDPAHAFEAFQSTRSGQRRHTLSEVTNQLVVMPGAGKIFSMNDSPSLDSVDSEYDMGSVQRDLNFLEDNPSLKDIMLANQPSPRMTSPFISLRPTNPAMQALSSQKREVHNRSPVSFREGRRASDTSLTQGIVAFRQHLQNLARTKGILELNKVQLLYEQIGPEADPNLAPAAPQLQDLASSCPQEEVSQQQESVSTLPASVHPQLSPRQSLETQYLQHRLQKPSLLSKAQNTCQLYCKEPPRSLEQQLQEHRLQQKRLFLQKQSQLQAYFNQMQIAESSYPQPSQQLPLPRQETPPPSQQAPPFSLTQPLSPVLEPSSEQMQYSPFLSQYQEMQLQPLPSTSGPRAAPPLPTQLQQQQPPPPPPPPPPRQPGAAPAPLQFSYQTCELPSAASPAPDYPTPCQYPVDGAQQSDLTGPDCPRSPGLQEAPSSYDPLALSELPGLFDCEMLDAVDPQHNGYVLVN

Structure (SMILES)	IC50 [µM]
Cc1cc(-c2ccn3nc(Nc4cc(C)c(=O)n(C)n4)cc3c2)c(OCC(C)(C)O)cn1 [Example 209, 6-[[5-[5-(2-hydroxy-2-methyl-propoxy)-2-methyl-4-pyridyl]pyrazolo[1,5-a]pyridin-2-yl]amino]-2,4-dimethyl-pyridazin-3-one]	0.0171
Cc1cc(-c2ccn3nc(Nc4cc(C)nc(C)n4)cc3c2)c(OCC2(O)CCC2)cn1 [Example 217, 1-[[4-[2-[(2,6-dimethylpyrimidin-4-yl)amino]pyrazolo[1,5-a]pyridin-5-yl]-6-methyl-3-pyridyl]oxymethyl]cyclobutanol]	0.0279
Cc1cc(-c2ccn3nc(NC(=O)C4CC4)cc3c2)c(OCC2(C#N)CNC2)cn1 [Example 221, N-[5-[5-[(3-cyanoazetidin-3-yl)methoxy]-2-methyl-4-pyridyl]pyrazolo[1,5-a]pyridin-2-yl]cyclopropanecarboxamide]	0.00234
COCc1nc(C)cc(Nc2cc3cc(-c4cc(C)ncc4O[C@H]4CC[C@H](O)CC4)ccn3n2)n1 [Example 225, (1r,4r)-4-((4-(2-((2-(methoxymethyl)-6-methylpyrimidin-4-yl)amino)pyrazolo[1,5-a]pyridin-5-yl)-6-methylpyridin-3-yl)oxy)cyclohexan-1-ol]	0.00343
Cc1cc(-c2ccn3nc(Nc4cc(C)c(=O)n(C)n4)cc3c2)c(O[C@H]2CC[C@H](O)CC2)cn1 [Example 226, 6-((5-(5-(((1r,4r)-4-hydroxycyclohexyl)oxy)-2-methylpyridin-4-yl)pyrazolo[1,5-a]pyridin-2-yl)amino)-2,4-dimethylpyridazin-3(2H)-one]	0.00126
CNc1nc(C)cc(Nc2cc3cc(-c4cc(C)ncc4O[C@H]4CC[C@H](O)CC4)ccn3n2)n1 [Example 227, (1r,4r)-4-((6-methyl-4-(2-((6-methyl-2-(methylamino)pyrimidin-4-yl)amino)pyrazolo[1,5-a]pyridin-5-yl)pyridin-3-yl)oxy)cyclohexan-1-ol]	< 0.000847
Cc1cc(-c2ccn3nc(NC(=O)[C@@H]4C[C@H]4C)cc3c2)c(OC[C@@]23CN[C@@H](CO2)C3)cn1 [Example 234, (1R,2R)-2-methyl-N-[5-[2-methyl-5-[[(1R,4R)-5-oxa-2-azabicyclo[2.2.1]heptan-4-yl]methoxy]-4-pyridyl]pyrazolo[1,5-a]pyridin-2-yl]cyclopropanecarboxamide]	0.00837
Cc1cc(-c2ccn3nc(Nc4ccc(C5CC5)nn4)cc3c2)c(OC[C@]23C[C@H](CO2)N(C)C3)cn1 [Example 235, N-(6-cyclopropylpyridazin-3-yl)-5-[2-methyl-5-[[(1R,4R)-2-methyl-5-oxa-2-azabicyclo[2.2.1]heptan-4-yl]methoxy]-4-pyridyl]pyrazolo[1,5-a]pyridin-2-amine]	0.0199
Cc1cnc(Nc2cc3cc(-c4cc(C)ncc4OC[C@]45C[C@H](CO4)N(C)C5)ccn3n2)cn1 [Example 236, 5-[2-methyl-5-[[(1R,4R)-2-methyl-5-oxa-2-azabicyclo[2.2.1]heptan-4-yl]methoxy]-4-pyridyl]-N-(5-methylpyrazin-2-yl)pyrazolo[1,5-a]pyridin-2-amine]	0.0172
Cc1cc(-c2ccn3nc(Nc4ccc5cc[nH]c5n4)cc3c2)c(O[C@H]2CC[C@H](O)CC2)cn1 [Example 239, 4-[[6-methyl-4-[2-(1H-pyrrolo[2,3-b]pyridin-6-ylamino)pyrazolo[1,5-a]pyridin-5-yl]-3-pyridyl]oxy]cyclohexanol]	0.00245
COc1cc(Nc2cc3cc(-c4cc(C)ncc4O[C@H]4CC[C@H](O)CC4)ccn3n2)cc(OC)c1C(=O)NCC(F)(F)F [Example 241, 4-[[5-[5-(4-hydroxycyclohexoxy)-2-methyl-4-pyridyl]pyrazolo[1,5-a]pyridin-2-yl]amino]-2,6-dimethoxy-N-(2,2,2-trifluoroethyl)benzamide]	0.0401
Cc1cc(Nc2cc3cc(-c4cc(C)ncc4OCC(C)(C)O)ccn3n2)nc(C(=O)N(C)C)c1 [Example 244, 6-[[5-[5-(2-hydroxy-2-methyl-propoxy)-2-methyl-4-pyridyl]pyrazolo[1,5-a]pyridin-2-yl]amino]-N,N,4-trimethyl-pyridine-2-carboxamide]	0.0218

More lines, in order of falling IC50, values ahead:

IC50 [µM]	Structure (SMILES)
0.087	Cc1cc(-c2ccn3nc(Nc4cc(C)nc(C)n4)cc3c2)c(OC[C@H]2C[C@@H](O)CO2)cn1 [Example 204, (3R,5R)-5-[[4-[2-[(2,6-dimethylpyrimidin-4-yl)amino]pyrazolo[1,5-a]pyridin-5-yl]-6-methyl-3-pyridyl]oxymethyl]tetrahydrofuran-3-ol]
0.0448	COc1cc(Nc2cc3cc(-c4cc(C)ncc4O[C@H]4CC[C@H](O)CC4)ccn3n2)ccc1C(=O)NC1CC1 [Example 242, N-cyclopropyl-4-[[5-[5-(4-hydroxycyclohexoxy)-2-methyl-4-pyridyl]pyrazolo[1,5-a]pyridin-2-yl]amino]-2-methoxy-benzamide]
0.0441	COC(=O)c1ccc(Nc2cc3cc(-c4cc(C)ncc4O[C@H]4CC[C@H](O)CC4)ccn3n2)cc1OC [Example 246, methyl 4-[[5-[5-(4-hydroxycyclohexoxy)-2-methyl-4-pyridyl]pyrazolo[1,5-a]pyridin-2-yl]amino]-2-methoxy-benzoate]
0.0351	CCNC(=O)c1c(OC)cc(Nc2cc3cc(-c4cc(C)ncc4O[C@H]4CC[C@H](O)CC4)ccn3n2)cc1OC [Example 243, N-ethyl-4-[[5-[5-(4-hydroxycyclohexoxy)-2-methyl-4-pyridyl]pyrazolo[1,5-a]pyridin-2-yl]amino]-2,6-dimethoxy-benzamide]
0.0282	Cc1cc(-c2ccn3nc(NC(=O)C4CC4)cc3c2)c(OC[C@@]23C[C@@H](CO2)N(C)C3)cn1 [Example 237, N-[5-[2-methyl-5-[[(1S,4S)-2-methyl-5-oxa-2-azabicyclo[2.2.1]heptan-4-yl]methoxy]-4-pyridyl]pyrazolo[1,5-a]pyridin-2-yl]cyclopropanecarboxamide]
0.0239	COc1cc(Nc2cc3cc(-c4cc(C)ncc4O[C@H]4CC[C@H](O)CC4)ccn3n2)cc(OC)c1C(=O)NC1CC1 [Example 245, N-cyclopropyl-4-[[5-[5-(4-hydroxycyclohexoxy)-2-methyl-4-pyridyl]pyrazolo[1,5-a]pyridin-2-yl]amino]-2,6-dimethoxy-benzamide]
0.0181	COCc1nc(C)cc(Nc2cc3cc(-c4cc(C)ncc4OCC(C)(C)O)ccn3n2)n1 [Example 205, 1-[[4-[2-[[2-(methoxymethyl)-6-methyl-pyrimidin-4-yl]amino]pyrazolo[1,5-a]pyridin-5-yl]-6-methyl-3-pyridyl]oxy]-2-methyl-propan-2-ol]
0.016	Cc1cc(-c2ccn3nc(Nc4ccc5cc[nH]c5n4)cc3c2)c(OCC(C)(C)O)cn1 [Example 240, 2-methyl-1-[[6-methyl-4-[2-(1H-pyrrolo[2,3-b]pyridin-6-ylamino)pyrazolo[1,5-a]pyridin-5-yl]-3-pyridyl]oxy]propan-2-ol]
0.00856	Cc1cc(-c2ccn3nc(Nc4cc(C)c(=O)[nH]n4)cc3c2)c(OCC(C)(C)O)cn1 [Example 208, 3-[[5-[5-(2-hydroxy-2-methyl-propoxy)-2-methyl-4-pyridyl]pyrazolo[1,5-a]pyridin-2-yl]amino]-5-methyl-1H-pyridazin-6-one]
0.00758	CCc1nc(C)cc(Nc2cc3cc(-c4cc(C)ncc4OCC(C)(C)O)ccn3n2)n1 [Example 202, 1-[[4-[2-[(2-ethyl-6-methyl-pyrimidin-4-yl)amino]pyrazolo[1,5-a]pyridin-5-yl]-6-methyl-3-pyridyl]oxy]-2-methyl-propan-2-ol]
0.00712	CCn1nc(Nc2cc3cc(-c4cc(C)ncc4OCC(C)(C)O)ccn3n2)cc(C)c1=O [Example 247, 2-ethyl-6-[[5-[5-(2-hydroxy-2-methyl-propoxy)-2-methyl-4-pyridyl]pyrazolo[1,5-a]pyridin-2-yl]amino]-4-methyl-pyridazin-3-one]
0.00587	Cc1cc(-c2ccn3nc(Nc4cc(C)nc(C5CC5)n4)cc3c2)c(OCC(C)(C)O)cn1 [Example 229, 1-[[4-[2-[(2-cyclopropyl-6-methyl-pyrimidin-4-yl)amino]pyrazolo[1,5-a]pyridin-5-yl]-6-methyl-3-pyridyl]oxy]-2-methyl-propan-2-ol]
0.00407	Cc1cc(-c2ccn3nc(Nc4cc(C)nc(C)n4)cc3c2)c(OC[C@H]2OCC[C@@H]2O)cn1 [Example 218, (2R,3S)-2-[[4-[2-[(2,6-dimethylpyrimidin-4-yl)amino]pyrazolo[1,5-a]pyridin-5-yl]-6-methyl-3-pyridyl]oxymethyl]tetrahydrofuran-3-ol]
0.00309	COC1(COc2cnc(C)cc2-c2ccn3nc(NC(=O)C4CC4)cc3c2)CNC1 [Example 233, N-[5-[5-[(3-methoxyazetidin-3-yl)methoxy]-2-methyl-4-pyridyl]pyrazolo[1,5-a]pyridin-2-yl]cyclopropanecarboxamide]
0.00226	Cc1cc(-c2ccn3nc(Nc4cc(C)nc(C)n4)cc3c2)c(OC[C@@]23CN[C@@H](CO2)C3)cn1 [Example 238, N-(2,6-dimethylpyrimidin-4-yl)-5-[2-methyl-5-[[(1R,4R)-5-oxa-2-azabicyclo[2.2.1]heptan-4-yl]methoxy]-4-pyridyl]pyrazolo[1,5-a]pyridin-2-amine]
0.00167	CNc1nc(C)cc(Nc2cc3cc(-c4cc(C)ncc4OCC(C)(C)O)ccn3n2)n1 [Example 228, 2-methyl-1-[[6-methyl-4-[2-[[6-methyl-2-(methylamino)pyrimidin-4-yl]amino]pyrazolo[1,5-a]pyridin-5-yl]-3-pyridyl]oxy]propan-2-ol]
0.00127	CCc1nc(C)cc(Nc2cc3cc(-c4cc(C)ncc4O[C@H]4CC[C@H](O)CC4)ccn3n2)n1 [Example 224, (1r,4r)-4-((4-(2-((2-ethyl-6-methylpyrimidin-4-yl)amino)pyrazolo[1,5-a]pyridin-5-yl)-6-methylpyridin-3-yl)oxy)cyclohexan-1-ol]
